The text below walks through data of patent US6225478A, “Iridoid derivatives and neovascularization inhibitors containing the same as active ingredient” (Tsumura & Co., priority 1999, dated 2001).

Experiment [1] relates to human umbilical-vein endothelial cells (HUVEC). As to the kind of experiment: Tube Formation Assay (TFA) Test, HUVEC in collagen gel. Format: cell-based. Conditions: Homo sapiens, HUVEC, Tables 75-83; 0.32 mM sample solution; method as for Compounds 1 through 60; read-out: TFA Inhibition rate (%). The method, then: Furthermore, the sample liquids of compounds used in the CPA and CMA tests were prepared in the manner described below. Firstly, after weighing out each compound, a calculated amount of DMSO was added. After dissolving the compound in the DMSO, phosphate buffered physiological saline (PBS (-)) was added to bring the sample concentration to 1 mg/ml in PBS (-). The amount of DMSO used to dissolve the compounds was adjusted in advance to that the concentration of DMSO at that time was 5%. The resulting liquids were diluted 10-fold with 5% DMSO-PBS (-) solution to prepare sample solutions having a concentration of 0.1 mg/ml. In the TFA test, 320 μl of the prepared 1 mg/ml sample solutions were removed followed by addition of 680 μl of PBS (-) to prepare samples having a concentration of […]. Moreover, 100 μl of this solution was removed followed by addition of 900 μl of PBS (-) to dilute 10-fold and prepare samples having a concentration of 1 μg/ml. P [Cell Proliferation Assay (CPA) Test]
To begin with, 8 volumes of Type 1-A cell matrix (manufactured by Gibco Co.), 1 volume of 10×M119, and 1 volume of reconstituted buffer [200 mM HEPES, 0.05 N sodium hydroxide, 260 mM sodium bicarbonate] were slowly mixed under cooling with ice while avoiding bubbling to form a collagen gel. This collagen gel was distributed in a NUNC 24-well plate at 310 μl/well followed by allowing to stand undisturbed for 2 hours at 37° C. to solidify the gel.
Next, the 7th subculture of HUVEC (1×10^5 cells/ml) obtained from the first generation in the same manner as above were disseminated at 500 μl/well. The cells were cultured for 2 hours at 37° C. to allow the cells to make contact with the collagen. After then removing the medium by aspiration, 50 μl of sample solution were added followed by addition of 310 μl/well of freshly prepared collagen gel and culturing for 1 hour and 10 minutes at 37° C. to solidify the double-layer gel.
1 ml/well of M-199 medium containing 20% FCS, 30 ng /ml of b-FGF and 0.1 μM PMA were added to the wells followed by culturing for 20 hours at 37° C. in the presence of 5% CO2.
Measurement of the lengths of the formed tubes was performed using the public domain NIH Image with a computer.
Evaluation was performed by calculating the inhibition rate (%) of tube formation according to the following formula.
Inhibition rate (%)=100-((formed tube length in presence of sample-formed tube length in presence of control (-))×100/(formed tube length in presence of control (+)-formed tube length in presence of control (-)))
(§1) Samples were prepared using the present compounds of Compound No. I-60 through I-315. More specifically, 32 μl of a 20 mM sample solution dissolved in dimethylsulfoxide (DMSO) were removed and brought to a volume of 1 ml with phosphate-buffered saline (PBS) to prepare a sample solution having a concentration of 0.32 mM (containing 3.2% DMSO).
The testing method used for these compounds was the same as that used for the compounds of Compound No. 1 through 60 previously described.

The next experiment concerns HUFEC. As to the kind of experiment: Cell Migration Assay (CMA) Test, inhibitory rate with control (-) correction. It is filed as cell-based, human. The following applies: Homo sapiens, 24 h, 125 μl of 0.32 mM sample solution in 4.0 ml medium, 80% or more = remarkable. As for the experimental part: as §1
After disseminating the 7th subculture of […] obtained from the first generation at 4 ml/well (3.0×10^5 cells/well) in a collagen-coated 6-well plate (NUNC), the cells were cultured for 48 hours at 37° C. in the presence of 5% CO2. The cells reached nearly a completely confluent state as a result of this culturing.
A double-edged, disposable razor blade was divided into four sections, of which one of those sections was pinched between a pair of forceps. Using this piece of razor blade, the cell surface in the above confluent state was scraped off.
After washing the surface of the wells from which the cells had been scraped off with medium, 4.0 ml of fresh M199 (2+) medium were placed in the wells. 4.0 ml of M199 medium were added to the control (-) well.
125 μl of sample solution (0.32 mM, containing 3.2% dimethylsulfoxide) were added to the wells.
125 μl of PBS solution containing 3.2% dimethylsulfoxide were added to the control wells instead of sample. The cells were cultured for 24 hours at 37° C. in the presence of 5% CO2. After discarding the culture liquid, the cells were fixed for 30 minutes with methanol. Next, after […] the cells for 4 hours with Giemsa stain, the plates were washed with tap water and air dried.
Measurement of cell migration was performed by microscopically counting the number of cells that had newly migrated within the range of a 1 mm×1 mm block. […] The total number of cells counted in blocks 1 through 5 were then totaled to determine the overall total number of cells. Four fields were counted for each well.
Evaluation was performed determining the cell migration inhibitory rate (%) according to the following equation.
Inhibitory rate=100-((number of migrating cells to which sample was added-number of migrating cells of control (-))×100/(number of migrating cells of control (+)-number of migrating cells of control (-)))
If this inhibitory rate was 80% or more, cell migration was assessed as being remarkable.

With `COC(=O)C1=CO[C@@H](OC(=O)Nc2ccc(F)cc2F)[C@H]2[C@@H]1CC[C@@H]2C` [I-256], the inhibition at 320 µM (stock) is 4% in experiment [1] and 5% with HUFEC.
For `COC(=O)C1=CO[C@@H](OC(N)=O)[C@H]2[C@@H]1CC[C@@H]2C` [I-179], in that order: 5.2% and 81.3%.
Take `COC(=O)C1=CO[C@@H](OC(=O)N(C)C)[C@@H]2C(C)=CC[C@H]12` [I-136]: the inhibition at 320 µM (stock) amounted to 15.6% in experiment [1] and 8.3% in the experiment with HUFEC.
`COC(=O)C1=CO[C@@H](OC(=O)N2CCN(c3cccc(C(F)(F)F)c3)CC2)[C@@H]2C(C)=CC[C@H]12` [I-130]: the values for the inhibition at 320 µM (stock) (in experiment [1]; with HUFEC) were 5.5% and 7.5%, respectively.
Turning to `COC(=O)C1=CO[C@@H](OC(=O)NCc2cccc(F)c2)[C@@H]2C(C)=CC[C@H]12` [I-127], the inhibition at 320 µM (stock) (in experiment [1]; in the experiment with HUFEC) was 5.3% in each case.
As for `COC(=O)C1=CO[C@@H](OC(=O)N2CCN(CCO)CC2)[C@H]2[C@@H]1CC[C@@H]2C` [I-180], the inhibition at 320 µM (stock) in experiment [1] was 7.7%; in the experiment on HUFEC, 50%.
As to `COC(=O)C1=CO[C@@H](OC(=O)N(C)CCc2ccc(OC)c(OC)c2)[C@H]2[C@@H]1CC[C@@H]2C` [I-227], the inhibition at 320 µM (stock) in experiment [1] is 7.4%; in the experiment on HUFEC, 17.2%.
With `CCNC(=O)O[C@@H]1OC=C(C(=O)OC)[C@H]2CC[C@H](C)[C@@H]12` [I-262], the figures for the inhibition at 320 µM (stock) (in experiment [1]; in the experiment on HUFEC) were 8.8% and 6.3%, respectively.
Regarding `COC(=O)C1=CO[C@@H](OC(=O)N2CCN(c3ccccc3F)CC2)[C@H]2[C@@H]1CC[C@@H]2C` [I-251], the figures for the inhibition at 320 µM (stock) (in experiment [1]; in the experiment with HUFEC) were 7.9% and 8.7%, respectively.
As for `CCOC(=O)CCCNC(=O)O[C@@H]1OC=C(C(=O)OC)[C@H]2CC[C@H](C)[C@@H]12` [I-237], the inhibition at 320 µM (stock) turned out to be 7.8% in experiment [1] and 6.9% in the experiment on HUFEC.
`COC(=O)C1=CO[C@@H](OC(=O)Nc2ccc(Cl)cc2C(F)(F)F)[C@@H]2C(C)=CC[C@H]12` [I-164]: the inhibition at 320 µM (stock) was determined as 2.5% in experiment [1] and 5.9% in the experiment on HUFEC.
For the molecule `COC(=O)C1=CO[C@@H](OC(=O)NCc2ccccn2)[C@@H]2C(C)=CC[C@H]12` [I-75], the inhibition at 320 µM (stock) in experiment [1] stood at 4.3%; in the experiment with HUFEC, 11.7%.
In the case of `COC(=O)C1=CO[C@@H](OC(=O)N(C)CC2OCCO2)[C@H]2[C@@H]1CC[C@@H]2C` [I-198], the inhibition at 320 µM (stock) in experiment [1] was 2.9%; in the experiment on HUFEC, 7.9%.
`COC(=O)C1=CO[C@@H](OC(=O)N(CCO)CCO)[C@@H]2C(C)=CC[C@H]12` [I-138]: the values for the inhibition at 320 µM (stock) (in experiment [1]; in the experiment with HUFEC) were 2.5% and 3.5%, respectively.
Consider `COC(=O)C1=CO[C@@H](OC(=O)NCCO)[C@H]2[C@@H]1CC[C@@H]2C` [I-187], for which the inhibition at 320 µM (stock) was found to be 11.7% in experiment [1] and 31.3% in the experiment with HUFEC.
Consider `COC(=O)CNC(=O)O[C@@H]1OC=C(C(=O)OC)[C@H]2CC=C(C)[C@@H]12` [I-144], for which the figures for the inhibition at 320 µM (stock) (in experiment [1]; in the experiment on HUFEC) were 7.5% and 31.2%, respectively.
Consider `C[C@@H]1CC[C@@H]2C(C(=O)N3CCN(CCO)CC3)=COC[C@H]12` [I-305], for which the inhibition at 320 µM (stock) in experiment [1] worked out at 23.1%; with HUFEC, 7.6%.
With `COC(=O)C1=CO[C@@H](OC(=O)NC(CO)CO)[C@H]2[C@@H]1CC[C@@H]2C` [I-249], the results for the inhibition at 320 µM (stock) (in experiment [1]; in the experiment on HUFEC) were 11.1% and 44%, respectively.
For `COC(=O)C1=CO[C@@H](OC(=O)N2CCc3ccccc3C2)[C@H]2[C@@H]1CC[C@@H]2C` [I-225], the inhibition at 320 µM (stock) was found to be 5.5% in experiment [1] and 25% in the experiment with HUFEC.
Regarding `COC(=O)C1=CO[C@@H](OC(=O)NCC2CC2)[C@H]2[C@@H]1CC[C@@H]2C` [I-241], the inhibition at 320 µM (stock) in experiment [1] was 5.1%; in the experiment on HUFEC it was 12.6%.
With `COC(=O)C1=CO[C@@H](OC(=S)N(C)C)[C@H]2[C@@H]1C[C@@H]1O[C@]21C` [I-284], the results for the inhibition at 320 µM (stock) (in experiment [1]; with HUFEC) were 23.1% and 32.5%, respectively.
For `COC(=O)C1=CO[C@@H](OC(=O)N2CCC2)[C@H]2[C@@H]1CC[C@@H]2C` [I-250], the results for the inhibition at 320 µM (stock) (in experiment [1]; in the experiment on HUFEC) were 4.1% and 8%, respectively.
For `COC(=O)C1=CO[C@@H](OC(=O)Nc2ccc(OC(F)(F)F)cc2)[C@@H]2C(C)=CC[C@H]12` [I-165], in that order: 7.5% and 12.5%.
For `COC(=O)C1=CO[C@@H](OC(=O)NCc2ccc(Br)cc2)[C@@H]2C(C)=CC[C@H]12` [I-143], in that order: 8.1% and 5.9%.
For `COC(=O)C1=CO[C@@H](OC(=O)NCCCN2CCOCC2)[C@@H]2C(C)=CC[C@H]12` [I-124], the inhibition at 320 µM (stock) in experiment [1] was determined as 2.6%; in the experiment on HUFEC it was 5.7%.
On the same counts, the results for `CCOC(=O)C1=CO[C@@H](OC(=O)NC)[C@@H]2C(C)=CC[C@H]12` [I-312] are 41.8% and 34.9%.
Consider `COC(=O)C1=CO[C@@H](OC(=O)NCCc2ccccc2)[C@@H]2C(C)=CC[C@H]12` [I-119], for which the values for the inhibition at 320 µM (stock) (in experiment [1]; in the experiment on HUFEC) were 4.2% and 18.8%, respectively.
For the molecule `COC(=O)C1=CO[C@@H](OC(=O)N2CCSCC2)[C@H]2[C@@H]1CC[C@@H]2C` [I-219], the inhibition at 320 µM (stock) in experiment [1] is 30.6%; in the experiment on HUFEC it was 6.3%.
As for `COC(=O)C1=CO[C@@H](OC(=O)NCC2CCCCC2)[C@H]2[C@@H]1CC[C@@H]2C` [I-191], the inhibition at 320 µM (stock) in experiment [1] was found to be 6%; in the experiment with HUFEC, 8%.
As to `COC(=O)C1=CO[C@@H](OC(=O)Nc2ccc(Br)cc2)[C@H]2[C@@H]1CC[C@@H]2C` [I-259], the values for the inhibition at 320 µM (stock) (in experiment [1]; in the experiment with HUFEC) were 2.9% and 5%, respectively.
Turning to `COC(=O)C1=CO[C@@H](OC(=O)Nc2cccc(C(C)=O)c2)[C@H]2[C@@H]1CC[C@@H]2C` [I-273], the inhibition at 320 µM (stock) in experiment [1] was found to be 17.5%; with HUFEC, 3.8%.
On to `COC(=O)C1=CO[C@@H](OC(=O)NC(C)C)[C@@H]2C(C)=CC[C@H]12` [I-155], for which the inhibition at 320 µM (stock) in experiment [1] was found to be 45.7%; with HUFEC, 19.9%.
For `COC(=O)C1=CO[C@@H](OC(=O)NCc2ccc(Cl)c(Cl)c2)[C@H]2[C@@H]1CC[C@@H]2C` [I-196], the inhibition at 320 µM (stock) was 6.2% in experiment [1] and 27.6% with HUFEC.
`COC(=O)C1=CO[C@@H](OC(=O)Nc2ccc(F)cc2F)[C@@H]2C(C)=CC[C@H]12` [I-154]: in experiment [1], the inhibition at 320 µM (stock) stood at 56.2%.

As a reminder, the inhibition is the relative decrease from the control value, in per cent.
